One assay relates to microglia. In words: OX-42 immunostaining of LPS-activated microglia in neuron-glia cultures. In kind it is cell-based. Conditions: MMT 3 μM pretreated 30 min, twelve hours after LPS. The protocol: DA neurons were recognized with the polyclonal antibody against tyrosine hydroxylase (TH) and microglia was detected with the OX-42 antibody against CR3 receptor. Briefly, cells were fixed for 20 min at room temperature in 3.7% formaldehyde diluted in phosphate-buffered saline (PBS). After washing twice with PBS, the cultures were treated with 1% hydrogen peroxide for 10 min. […] To quantify cell numbers, nine representative areas per well in the 24-well plate were counted under the microscope at 100× magnification by two individuals. […]
To provide evidence of anti-inflammatory effect of MMT, the degree of inhibition of LPS-induced activation of microglia was determined by 1) morphological observation after immunostaining of microglia marker (OX-42) and 2) release of pro-inflammatory factors from activated microglia, such as extracelloualr superoxide radicals, intracellular reactive oxygen species (iROS), nitric oxide (NO), PGE2. […]

The target of a further assay is T1, gp 91 (Homo sapiens, UniProt P04839).
T1 sequence (P04839 1-570): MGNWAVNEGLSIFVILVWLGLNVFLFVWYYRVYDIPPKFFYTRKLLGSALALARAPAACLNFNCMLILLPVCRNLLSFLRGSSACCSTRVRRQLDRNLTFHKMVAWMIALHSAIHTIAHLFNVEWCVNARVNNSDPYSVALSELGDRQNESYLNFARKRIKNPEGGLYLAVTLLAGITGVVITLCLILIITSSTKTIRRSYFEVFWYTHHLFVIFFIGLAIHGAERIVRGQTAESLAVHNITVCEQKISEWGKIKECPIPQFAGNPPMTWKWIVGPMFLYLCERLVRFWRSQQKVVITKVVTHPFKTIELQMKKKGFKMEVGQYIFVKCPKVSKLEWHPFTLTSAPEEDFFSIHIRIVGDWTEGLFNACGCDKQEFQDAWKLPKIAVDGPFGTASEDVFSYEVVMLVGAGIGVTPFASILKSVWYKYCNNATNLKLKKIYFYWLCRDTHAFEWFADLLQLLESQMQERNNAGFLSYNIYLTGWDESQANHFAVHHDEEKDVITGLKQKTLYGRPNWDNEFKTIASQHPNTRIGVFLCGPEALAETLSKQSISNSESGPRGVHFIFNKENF
T1 sequence (P13498 1-195 partner): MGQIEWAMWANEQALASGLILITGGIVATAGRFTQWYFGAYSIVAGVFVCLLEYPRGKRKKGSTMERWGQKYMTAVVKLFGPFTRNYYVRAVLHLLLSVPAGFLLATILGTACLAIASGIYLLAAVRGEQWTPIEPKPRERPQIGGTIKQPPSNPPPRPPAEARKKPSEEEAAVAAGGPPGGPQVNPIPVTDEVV
The assay is described as follows: Competition of [3H]-labeled naloxine binding. The conditions noted are these: preliminary data. The text has this: Results from two sets of experiments support this conclusion. […] Thus, the failure for MMT to protect LPS-induced DA neurons toxicity in NADPH oxidase-deficient neuron/glia cultures implies a critical role of this enzyme in mediating the neuroprotective effect of MMT. The present invention determines the binding site of MMT in microglia.

A short description of assay [1]: Glutamate and aspartate concentrations in supernatants of primary neuron-glia cultures. Type of assay: cell-based. The conditions noted are these: vehicle, 10 μM MMT, LPS 5 ng/ml, MMT plus LPS. The procedure:
Primary neuron-glia cultures seeded in 24-well plates at a density of 5×10^5 cells/well for 7 days. Then, the cultures were treated with vehicle, 10 μM MMT, LPS 5 ng/ml, and MMT 10 μM and LPS 5 ng/ml, and supernatants derived from the primary neuron-glia cultures at indicated time points.
To determine the possibility that NMDA receptors might play a role in our mixed neuron/glia cultures in MMT-elicited neuroprotection, this invention determine the concentrations of excitatory amino acid, glutamate and aspartate in the supernatant of cultures after LPS treatment. Several authors reported the release of excitatory amino acid release from microglia by higher concentration of LPS (100 ng/ml). However, the concentration of glutamate released was limited to 10-20 μM, which may not be in sufficient concentrations to produce significant neuronal death (Obrenovitch et al. Excitotoxicity in neurological disorders--the glutamate paradox. Int J Dev Neurosci. 2000; 18:281-7.). In mixed neuron/glia cultures of this invention, with lower concentration of LPS (5 ng/ml) which was toxic to DA neurons, this invention could not detect any increases in both glutamate and aspartate (FIG. 13).

The test system of a further assay is DA neurons. In words: Neurotrophic effect in neuron-enriched, microglia-added and microglia-depleted cultures (DA uptake). Type of assay: cell-based, rat. The procedure:
Astrocytes, not micrglia, contribute to the neurotrophic effect of MMT. Neuron-enriched cultures were treated with vehicle and 1-10 μM MMT (FIG. 10A); 10% (5×10^4/well) of microglia were added back to neuron-enriched cultures and treated with 10 μM MMT (FIG. 10B); Depleted microglia cultures were treated with 10 μM MMT (FIG. 10C). ┌^3H┘ DA uptake was assayed 7 days after treatment. Values are mean±SEM of three independent experiments. *p<0.05, compared with corresponding vehicle-treated control cultures.
In addition to neuroprotection against LPS-induced neurotoxicity, MMT is found to have high potency of neurotrophic effect on DA neurons in rat primary mesencephalic neuron-glia cultures.
Mesencephalic neuron-glia cultures were seeded (5×10^5/well) in 24 well plates precoated with poly D-lysine. Thirty-six hours postseeding, 5-10 μM cytosine β-D-arabinofuranoside was added to the culture. After 2 days, the cytosine β-D-arabinofuranoside was removed and replaced with fresh media. Neuron-enriched cultures are 98% pure, as indicated by ICC staining with OX-42 and GFAP antibodies. Neuron-enriched cultures were treated 7 days post-seeding. For microglia add-back cultures, the microglia were plated on top of the neuron-enriched culture at 6 days postseeding, resulting in the addition of either 10% (500 μL of 1×10^5) or 20% (500 μL of 2×10^5) microglia. Cells were treated 7 days after the initial seeding of the neuron-enriched cultures.

Each structure is given as a SMILES string.

On to `CC12CC3CC(C)(C1)CC(N)(C3)C2.Cl` [MMT, 1-amino-3,5-dimethyladamantane hydrochloride], for which the “activation of OX-42 stained microglia vs LPS-treated cultures” value in the assay on microglia is recorded as “less activated”. For the same compound, the “competing the binding of [3H]-labeled naloxine” value at gp 91 is reported as “effective in competing the binding”. In addition, in assay [1], the “aspartate concentration in supernatant” value is “not obviously different”. Moreover, in assay [1], the “glutamate concentration in supernatant” value is on record as “not obviously different”. Besides, the “neurotrophic effect on DA neurons” value in the assay with DA neurons (10% of microglia added back to neuron-enriched cultures) was “not microglia-added cultures”; with DA neurons (microglia-depleted neuron/glia culture) it was “neurotrophic in microglia-depleted neuron/glia culture”; with DA neurons (neuron-enriched cultures) it was “failed to show any protective effect”.

(Values after patent US20150080475A1, “Memantine Protects Inflammation-Related Degeneration of Dopamine Neurons Through Inhibition of Over-Activated Microglia and Release of Neurotrophic Factors From Astroglia” (priority 2009, published 2015).)
